Like-named read-outs stand apart in the source and are kept apart here.
How the values were obtained:
[1] = test system: human umbilical vein endothelial cells and human skin fibroblasts; experiment: Neovascularization in co-culture system of human umbilical vein endothelial cells and human skin fibroblasts (Neovascularization Kit), anti-CD31 immunostaining; type: cell-based
Method: The effect of LE135 on neovascularization was investigated by using a co-culture system of human umbilical vein endothelial cells and human skin fibroblasts (Neovascularization Kit, Kurabo Industries Ltd.). The vascular endothelial growth factor (VEGF) having a potent neovascularization action, added to 8 wells at a final concentration of 10 ng/ml, was used as positive control. Culture medium alone added to 8 wells without addition of the medicament was used as negative control. LE135 was added to the wells (8 wells for each group) at various concentrations, and culture was performed for 11 days. Immunostaining was performed by using anti-CD31 (PECAM1) antibodies directed to the vascular endothelial cells to determine the areas of luminal structures similar to blood vessels showing positive results and the numbers of branchings as an index of maturity of the formed luminal structures. The luminal structure areas and the numbers of branchings observed in the wells added with the medicament (LE135 or VEGF as the positive control) at various concentrations are shown in Table 1 in terms of relative values based on the luminal structure area and the number of branchings observed in the medicament-free wells as the negative control, which were taken as 100, respectively.
The effects of RAR antagonists other than LE135 on neovascularization were examined by using a co-culture system of human umbilical vein endothelial cells and human skin fibroblasts (Neovascularization Kit, Kurabo Industries Ltd.). The vascular endothelial growth factor (VEGF) having a potent neovascularization action added to wells at a final concentration of […] was used as positive control. Culture medium alone added to wells without addition of the medicament was used as negative control. Each compound was added at a concentration of 10^−9 mol/L, and culture was performed for 11 days. Immunostaining was performed by using anti-CD31 (PECAM1) antibodies directed to vascular endothelial cells to determine the areas of luminal structures similar to blood vessels showing positive results and the numbers of branchings as an index of maturity of the formed luminal structures. The luminal structure areas and the numbers of branchings observed in the wells added with the medicament at each given concentration are shown in the following table in terms of relative values based on the luminal structure area and the number of branchings observed in the medicament-free wells as the negative control, which were taken as 100, respectively.

[2] = test system: mouse lower extremity ischemia model; experiment: Neovascularization experiment using mouse lower extremity ischemia model; type: in vivo, mice (C3H/HeNCrj)
Method: The femoral arteries on one side of 24 to 36-week old wild-type male mice (C3H/HeNCrj) were ligated and separated to prepare lower extremity ischemia model mice. […] The blood flow ratio between the affected extremities and the normal extremities was determined by the laser Doppler method on the day before the operation and 1, 3, 4, 5, 7, 9, 12, 14, 16, 18, 21, 24 and 28 days after the operation. […] In order to detect vascular endothelial cells in muscle tissues of the affected extremities on 21st day after the operation, immunostaining was performed by using anti-CD31 (PECAM1) antibodies.

[3] = test system: rabbit lower extremity ischemia model; experiment: Intramuscular administration to rabbit lower extremity ischemia model, angiography; type: in vivo, rabbits; conditions: 10^−8 M LE135 solution injected into femoral muscles, 3 times per week; 28th day from the ligature; compared with control group (FIG. 2)
Method: The external iliac arteries on one side of rabbits were ligated and separated, and a 10^−8 M LE135 solution was injected into the femoral muscles on the same side to examine the neovascularization effect of the medicament. A solution of an organic solvent alone in the same amount as used for dissolution of LE135 was used as a negative control. The solutions were administered 3 times per week from the next day of the ligature. […] The blood vessels surrounded by the broken lines are considered to be collateral blood routes. In the figure, the white arrows* indicate the common iliac arteries.

[4] = Example 4: each compound 10^−9 mol/L, culture 11 days, relative value, negative control taken as 100, mean ± SD (Table 3)
[5] = LE135 10^−9 M, culture 11 days, relative value, negative control taken as 100, mean ± SD (Table 1)
[6] = LE135 10^−10 M, culture 11 days, relative value, negative control taken as 100, mean ± SD
[7] = LE135 10^−11 M, culture 11 days, relative value, negative control taken as 100, mean ± SD

Molecule: CN1c2cc3c(cc2N=C(c2ccc(C(=O)O)cc2)c2ccccc21)C(C)(C)CCC3(C)C [LE135, 4-(5H-7,8,9,10-tetrahydro-5,7,7,10,10-pentamethylbenzo[e]naphtho[2,3-b][1,4]diazepin-13-yl)benzoic acid]
- Area (luminal structure area) [1, 4]: 158.73 ± 6.89
- Number of branchings [1, 4]: 170.09 ± 14.87
- Area (luminal structure area) [1, 5]: 112.52 ± 4.68
- Number of branching [1, 5]: 150.31 ± 10.26
- Area (luminal structure area) [1, 6]: 116.30 ± 5.69
- Number of branching [1, 6]: 137.40 ± 9.48
- Area (luminal structure area) [1, 7]: 109.09 ± 4.89
- Number of branching [1, 7]: 118.70 ± 9.27
- Promotion of neovascularization ([1]; concentrations of 10^−10 and 10^−9 M, versus negative control): significantly promoted neovascularization
- CD31-positive cell count per field (200×) ([2]; mice orally administered with 5 mg/kg of LE135, muscle tissues of affected extremities, 21st day after the operation): 21.63 ± 4.12 per field (200×)
- Numbers of endothelial cells (CD31-positive cells), in words ([2]; muscle tissues of affected extremities, 21st day after the operation, compared with no medicament-administered group): significantly higher numbers of endothelial cells
- Necrosis or amputation in the lower extremities ([2]; orally 5 mg/kg of LE135, 28th day after the operation, about 30% in no medicament-administered mice): no mouse among the LE135-administered mice was observed to have necrosis or amputation
- Blood flow ratio between affected and normal extremities (laser Doppler method) ([2]; orally 5 mg/kg of LE135, up to 28 days after the operation, compared with no medicament-administered mice (FIG. 1)): Significant improvement of the blood flow
- Formation of collateral blood routes (angiography) [3]: evidently better formation of collateral blood routes

Molecule: CN1c2cc3c(cc2N=C(c2ccc(C(=O)O)cc2)c2ccc4ccccc4c21)C(C)(C)CCC3(C)C [LE540]
- Blood vessel luminal structure area (in words) ([1]; Example 4: 10^−9 mol/L, versus negative control): significantly increased the blood vessel luminal structure area
- Area (luminal structure area) [1, 4]: 172.02 ± 22.00
- Number of branchings [1, 4]: 195.33 ± 24.49

Molecule: VEGF
- Number of branching [1]: 154.20 ± 7.12
- Number of branchings [1]: 321.50 ± 42.17
- Area (luminal structure area) ([1]; Example 4: VEGF final concentration 10 μg/ml, culture 11 days, relative value, negative control taken as 100 (Table 3)): 202.52 ± 18.40
- Area (luminal structure area) ([1]; VEGF final concentration 10 ng/ml, culture 11 days, relative value, negative control taken as 100 (Table 1)): 134.88 ± 4.42

Source: patent US20090118264A1, “Medicament having neovascularization promoting action” (Research Foundation Itsuu Laboratory, priority 2005, published 2009)
